According to US8980933B2, “Combretastatin analogs for use in the treatment of cancer” (Universitat Bayreuth, priority 2010, dated 2015):

Key:
Assay type in all cases: cell-based, human
HL-60 cells [1] = assay: Mitochondrial membrane assay (JC-1), HL-60; conditions: 5 μM, red/green fluorescence ratio relative to untreated controls (100%), mean ± SD
Experimental: (§1) Values represent means of four independent experiments±standard deviation.
(§2) Changes in mitochondrial membrane potential were determined by the Mitochondrial Membrane Detection Kit (Stratagene, La Jolla, Calif., USA) according to the manufacturer's procedure. 72 h following treatment with 5 μM of the test compounds, cell samples were centrifuged at 400 g for 5 min. The pellets were resuspended in 500 μL diluted JC-1 solution, incubated at 37° C. for 15 min (HL-60) and then centrifuged again for 5 min at 400 g. After washing, the pellets were resuspended in 100 μL PBS and transferred into the wells of a black 96-well plate. The red (λex=585 nm, λem=590 nm) and green (λex=510 nm, λem=527 nm) fluorescence intensities were measured and their ratio was calculated.

518A2 cells [2] = assay: Mitochondrial membrane assay (JC-1), 518A2; conditions: 5 μM, red/green fluorescence ratio relative to untreated controls (100%), mean ± SD
Experimental: as §1, §2

HL-60 cells [3] = assay: ROS generation, NBT assay, HL-60; conditions: 50 μM, relative to untreated controls (1%), mean ± SD
Experimental: (§3) The generation of reactive oxygen species (ROS) in tumor cells is a sign of cellular stress resulting in severe damage of cellular components such as DNA, lipids or proteins.
(§4) For the NBT assay, HL-60 cells (0.5·10^6/mL) were plated in 96-well tissue culture plates, and test compounds were added after 24 h incubation at 37° C. to achieve a final concentration of 50 μM. […] After removal of the cell medium by centrifugation, the cells in each well were resuspended in 100 μL 0.1% NBT, and the plates were placed in the incubator for 1 h. The reduced NBT was solubilized with 100 μl 2 M KOH and 130 μl DMSO for 30 min. The absorbance was measured for each well at 630 and 405 nm (background) using an ELISA plate reader. The adherent 518A2 cells (0.5·10^4/mL) were seeded out in 96-well tissue culture plates after trypsinization and incubation for 24 h at 37° C. to allow attachment, then treated similarly, only that the medium was removed prior to incubation with NBT for 4 h. All experiments were carried out in quadruplicate.

518A2 cells [4] = assay: ROS generation, NBT assay, 518A2; conditions: 50 μM, relative to untreated controls (1%), mean ± SD
Experimental: as §3, §4

[5] = tested on: MCF-7/Topo breast carcinoma cells; assay: MTT cell growth inhibition, MCF-7/Topo; conditions: MCF-7/Topo (BCRP+)
Experimental: The effects of the compounds 5b, 6b, 8a, and 8e according to the present invention and of the reference compound 25f (Wang et al., J. Med. Chem. 2002, 45, 1697-1711) on cells of the following human tumor cell lines were evaluated: 518A2 melanoma, HL-60 leukemia, HT-29 colon carcinoma, KB-V1/Vbl cervical carcinoma, and MCF-7/Topo breast carcinoma.
The HL-60 cells were obtained from the German Collection of Biological Material (DSMZ), Braunschweig, Germany; the human 518A2 melanoma cells as well as the testicular germ cell tumor cell lines H12.1 and 1411HP were cultured in the department of oncology and hematology, Medical Faculty of the Martin-Luther University, Halle, Germany; the KBV1/Vbl and the MCF-7/Topo cells were obtained from the Institute of Pharmacy of the University Regensburg, Germany; and the colon HT-29 cells from the University Hospital Erlangen, Germany. The HL-60 and the HT-29 cells were grown in RPMI-1640 medium supplemented with 10% fetal calf serum (FCS), 100 IU/mL penicillin G, 100 μg/mL streptomycin sulfate, 0.25 μg/mL amphotericin B and 250 μg/mL gentamycine (all from Gibco, Egenstein, Germany). The 518A2 and the KB-V1/Vbl cells were cultured in Dulbecco's Modified Eagle Medium (D-MEM, Gibco) containing 10% FCS, 100 IU/mL penicillin G, 100 μg/mL streptomycin sulfate, 0.25 μg/mL amphotericin B and 250 μg/mL gentamycine. The MCF-7/Topo cells were grown in E-MEM medium (Sigma) supplemented with 2.2 g/L NaHCO3, 110 mg/L sodium pyruvate and 5% FCS. The cells were maintained in a moisture-saturated atmosphere (5% CO2) at 37° C. in 75-mL culture flasks (Nunc, Wiesbaden, Germany). They were serially passaged following trypsinisation by 0.05% trypsin/0.02% EDTA (PAA laboratories, Clbe, Germany). Mycoplasma contamination was routinely monitored, and only mycoplasma-free cultures were used.
MTT [3-(4,5-dimethylthiazol-2-yl)-2,5-diphenyltetrazolium bromide](ABCR) was used to identify viable cells which reduce it to a violet formazan (Mosmann, J. Immunol. Methods 1983, 65, 55-63). HL-60 leukemia cells (5×10^5/mL), and cells (5×10^4/mL) of 518A2 melanoma, HT-29 colon, KB-V1/Vbl cervix and MCF-7/Topo breast carcinoma were seeded out in 96-well tissue culture plates and cultured for 24 h. Incubation (5% CO2, 95% humidity, 37° C.) of the cells following treatment with the test compounds was continued for 24, 48 or 72 h. Blank and solvent controls were treated identically. […] The microplates were gently shaken in the dark for 30 min and absorbance at 570 nm and 630 nm (background) was measured with an ELISA plate reader. All experiments were carried out in quadruplicate; the percentage of viable cells was calculated as the mean±SD with controls set to 100%.

[6] = tested on: KB-V1/Vbl cervical carcinoma cells; assay: MTT cell growth inhibition, KB-V1/Vbl; conditions: KB-V1/Vbl (Pgp+)
Experimental: The MCF-7/Topo cells were grown in E-MEM medium (Sigma) supplemented with 2.2 g/L NaHCO3, 110 mg/L sodium pyruvate and 5% FCS. The cells were maintained in a moisture-saturated atmosphere (5% CO2) at 37° C. in 75-mL culture flasks (Nunc, Wiesbaden, Germany). They were serially passaged following trypsinisation by 0.05% trypsin/0.02% EDTA (PAA laboratories, Clbe, Germany). Mycoplasma contamination was routinely monitored, and only mycoplasma-free cultures were used.
HL-60 leukemia cells (5×10^5/mL), and cells (5×10^4/mL) of 518A2 melanoma, HT-29 colon, KB-V1/Vbl cervix and MCF-7/Topo breast carcinoma were seeded out in 96-well tissue culture plates and cultured for 24 h. […] Blank and solvent controls were treated identically. MTT in phosphate buffered saline (5 mg/mL) was added to a final concentration of 0.05% (HL-60, 518A2) or 0.1% (HT-29, KB-V1/Vbl, MCF-7/Topo). After 2 h the formazan precipitate was dissolved in 10% sodium dodecylsulfate in DMSO containing 0.6% acetic acid in the case of the HL-60 cells. For the adherent 518A2, KB-V1/Vbl, MCF-7/Topo and HT-29 cells the microplates were swiftly turned to discard the medium before adding the solvent mixture. The microplates were gently shaken in the dark for 30 min and absorbance at 570 nm and 630 nm (background) was measured with an ELISA plate reader. All experiments were carried out in quadruplicate; the percentage of viable cells was calculated as the mean±SD with controls set to 100%.

Structure (SMILES) | Intact mitochondria [%] in HL-60 cells after 72 h (HL-60 cells [1]) [%] | Intact mitochondria [%] in 518A2 cells after 72 h (518A2 cells [2]) [%] | NBT Reduction [%] in HL-60 cells after 24 h (HL-60 cells [3]) [%] | NBT Reduction [%] in 518A2 cells after 24 h (518A2 cells [4]) [%] | cytotoxicity / efficacy (comparison) [5] | efficacy (comparison) [6]
COc1ccc(-c2c(-c3cc(Br)c(OC)c(OC)c3)ncn2C)cc1F [compound 6c, 1-Methyl-4-(3′-bromo-4′,5′-dimethoxyphenyl)-5-(3″-fluoro-4″-methoxyphenyl)-imidazole] | 60 ± 15 | 89 ± 10 | 3.9 ± 0.1 | 1.4 ± 0.3 | – | –
COc1cc(-c2ncn(C)c2-c2ccc(N(C)C)cc2)cc(Br)c1OC [compound 6d, 1-Methyl-4-(3′-bromo-4′,5′-dimethoxyphenyl)-5-(4″-N,N-dimethylaminophenyl)-imidazole] | 63 ± 13 | 82 ± 7 | 6.7 ± 0.8 | 1.6 ± 0.3 | – | –
COc1ccc(-c2c(-c3cc(N)c(OC)c(OC)c3)ncn2C)cc1F [8d, 1-Methyl-4-(3′-amino-4′,5′-dimethoxyphenyl)-5-(3″-fluoro-4-methoxyphenyl)-imidazole] | 90 ± 22 | 98 ± 15 | 1.4 ± 0.2 | 1.2 ± 0.1 | – | –
COc1ccc(-c2c(-c3cc(N)c(OC)c(OC)c3)ncn2C)cc1O [8c, 1-Methyl-4-(3′-amino-4′,5′-dimethoxyphenyl)-5-(3″-hydroxy-4-methoxyphenyl)-imidazole] | 76 ± 19 | 94 ± 7 | 1.8 ± 0.3 | 1.1 ± 0.0 | – | –
COc1cc(-c2ncoc2-c2ccc(N(C)C)cc2)cc(N)c1OC [8b, 4-(3′-Amino-4′,5′-dimethoxyphenyl)-5-(4″-N,N-dimethylaminophenyl)-oxazole] | 62 ± 12 | 82 ± 8 | 3.3 ± 0.2 | 1.4 ± 0.3 | – | –
COc1ccc(-c2c(-c3cc(Cl)c(OC)c(OC)c3)ncn2C)cc1F [compound 5c, 1-Methyl-4-(3′-chloro-4′,5′-dimethoxyphenyl)-5-(3″-fluoro-4-methoxyphenyl)-imidazole] | 55 ± 7 | 84 ± 6 | 4.8 ± 0.5 | 1.6 ± 0.1 | – | –
COc1cc(-c2ncn(C)c2-c2ccc(N(C)C)cc2)cc(Cl)c1OC [compound 5d, 1-Methyl-4-(3′-chloro-4′,5′-dimethoxyphenyl)-5-(4″-N,N-dimethylaminophenyl)-imidazole] | 61 ± 13 | 80 ± 7 | 6.0 ± 0.9 | 2.4 ± 0.4 | – | –
COc1cc(-c2ncn(C)c2-c2ccc3c(c2)c(Cl)cn3C)cc(N)c1OC [compound 8e, 1-methyl-4-(3-amino-4,5-dimethoxyphenyl)-5-(N-methyl-3-chloroindol-5-yl)-imidazole] | 60 ± 15 | 77 ± 8 | 6.4 ± 0.3 | 1.6 ± 0.3 | greater efficacy than 25f and 5b/6b | greater efficacy than 25f and 5b/6b
